Series [1] in a line: Pharmacokinetics after administration of rac-ornidazole in a formulation. Format: in vivo, human. To be noted: for AUC of the component compared with rac-ornidazole / T1/2 of the component compared with rac-ornidazole: after a single administration of rac-ornidazole.
A further series concerns prothrombin time. The series can be described thus: Effect on prothrombin time. To be noted: relative to the Ornidazole racemic mixture.

Data on three compounds can be found in patent US11135200B2, “Antimicrobial drug synthesis and therapeutic compositions” (priority 2014, dated 2021).

A word on the Tmax: it is the time from dosing to the highest level. One may read the Cmax as the highest concentration seen after dosing.

SMILES strings stand for the structures. Where two headings read alike, the source gives them in different places.

`Cc1ncc([N+](=O)[O-])n1CC(O)CCl` (racemic) [(rac)-ornidazole, 1-chloro-3-(2-methyl-5-nitro-1H-imidazol-1-yl)propan-2-ol, reference compound]: the half-life lay within 14 to 18 h in series [1] (human, in vivo, after a single administration of rac-ornidazole in a formulation, read-out: elimination half-life (T1/2)) and 14 to 18 h in series [1] (human, in vivo, after oral administration, read-out: terminal elimination half-life). Also, the Tmax in series [1] (human, in vivo, after administration of rac-Ornidazole in a formulation) was in the range of 2 to 4 h. For the same compound, in series [1] (human, in vivo, after single administration of rac-ornidazole in a formulation), the highest concentration (Cmax) lay in the range of 9000 to 31500 ng/mL.
As for `Cc1ncc([N+](=O)[O-])n1C[C@@H](O)CCl` [(R)-ornidazole], in series [1], the “AUC of the component compared with rac-ornidazole” value is reported as “similar” and the “T1/2 of the component compared with rac-ornidazole” value was “similar”. For the same compound, in the series on prothrombin time, the “effect on prothrombin time” value is given as “diminished effect on prothrombin time”.
As to `Cc1ncc([N+](=O)[O-])n1C[C@H](O)CCl` [(S)-ornidazole], in series [1], the “AUC of the component compared with rac-ornidazole” value is on record as “similar” and the “T1/2 of the component compared with rac-ornidazole” value is recorded as “similar”. The “effect on prothrombin time” value with prothrombin time is listed as “diminished effect on prothrombin time”.
